According to US3974184A, “Microbial production of certain isoflavones” (Zaidan Hojin Biseibutsu Kagaku Kenkyu Kai, priority 1973, dated 1976):

How the values were obtained:
rats = assay: Toxicity in rats, administration into the abdominal cavity; type: in vivo; conditions: 200 mg./kg., abdominal cavity of rats, 25% aqueous dimethyl sulfoxide
Excerpt: Now the compounds (I), (II) and (III) will be described with respect to their biological properties.

DOPA decarboxylase = target: T1, DOPA decarboxylase (Homo sapiens, UniProt P20711); assay: Inhibition of DOPA decarboxylase (method of Davis and Awapara); type: biochemical; conditions: for inhibiting action against DOPA decarboxylase: in words; for IC50: read-out: concentration for 50% inhibition of DOPA decarboxylase (converted)
T1 sequence (P20711 1-480): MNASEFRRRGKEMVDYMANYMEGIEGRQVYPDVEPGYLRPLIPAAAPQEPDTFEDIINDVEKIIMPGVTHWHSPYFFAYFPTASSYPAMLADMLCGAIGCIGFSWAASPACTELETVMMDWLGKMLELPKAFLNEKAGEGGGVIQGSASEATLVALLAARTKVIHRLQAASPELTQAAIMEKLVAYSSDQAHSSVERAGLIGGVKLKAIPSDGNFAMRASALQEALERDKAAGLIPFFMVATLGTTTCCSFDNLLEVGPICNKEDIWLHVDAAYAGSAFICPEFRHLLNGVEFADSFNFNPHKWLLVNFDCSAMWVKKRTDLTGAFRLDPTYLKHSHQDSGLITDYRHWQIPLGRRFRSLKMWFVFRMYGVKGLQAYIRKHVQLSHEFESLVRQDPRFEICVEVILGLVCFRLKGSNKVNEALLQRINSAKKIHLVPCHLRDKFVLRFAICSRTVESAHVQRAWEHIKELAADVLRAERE
Excerpt: It has been reported heretofore that an inhibitor against COMT delays the metabolism or rate of destruction of adrenaline, noradrenaline, etc. in the human body and, therefore, serves to prolong and promote their blood pressure elevating action. These inhibitors may also be used as curative or palliative medicines for diseases such as depression which is considered to be caused when catechol amines present in the human body are reduced in quantity. There has been much argument about etiological causes of schizophrenia. One hypothesis says that the schizophrenia is caused by the production of abnormally methylated bioamines (methylated catechol amines and serotonin) within the brain. Especially, hallucination of schizophrenia is said to be caused by abnormally methylated catechol amines (Ref. "Amines and Schizophrenia" by H. E. Himwich, S. S. Kety and J. R. Smythies, 1967, Pergamon Press, Oxford). The inhibitors of COMT may therefore be used as curative medicines for schizophrenia and for the associated hallucination. On the other hand, the anti-hemochlasis of isoflavones has been reported by Murata and Ikehata ("Agr. Biol. Chem." Vol. 32, No. 6, 1968, pp. 740-746) and the cholesterol deposition preventing action of isoflavones has been reported by G. W. Moersch, D. F. Morrow and W. A. Neuklis ("J. Med. Chem." 10(2), 1967, pp. 154-158). […] It will therefore be possible to use the compounds (I), (II) and (III) as curative medicines for diseases such as hypertension and arteriosclerosis and also as economizers in combination with DOPA for treating Parkinson's disease. […] This means that there is a possibility to use the compounds (I) and (II) as curative medicines for inflammation and allergy in man.

[1] = system: spontaneously hypertensive rats; assay: Blood pressure lowering action in spontaneously hypertensive rats; type: in vivo; conditions: for blood pressure lowering action: abdominal cavity; for blood pressure lowering: in words
Excerpt: The inventors also examined the blood pressure lowering action of the compounds (I), (II) and (III) by administering them in the abdominal cavity of spontaneously hypertensive rats.

tyrosine hydroxylase = assay: Inhibition of tyrosine hydroxylase; type: biochemical; conditions: at 100 .nu./cc
fungi = assay: Inhibiting action against growth of fungi; type: cell-based; conditions: at 100 .nu./cc
dopamin-β-hydroxylase = target: T2, dopamin-β-hydroxylase (Bos taurus, UniProt P15101); assay: Inhibition of dopamin-β-hydroxylase; type: biochemical; conditions: at 100 .nu./cc
T2 sequence (P15101 1-610): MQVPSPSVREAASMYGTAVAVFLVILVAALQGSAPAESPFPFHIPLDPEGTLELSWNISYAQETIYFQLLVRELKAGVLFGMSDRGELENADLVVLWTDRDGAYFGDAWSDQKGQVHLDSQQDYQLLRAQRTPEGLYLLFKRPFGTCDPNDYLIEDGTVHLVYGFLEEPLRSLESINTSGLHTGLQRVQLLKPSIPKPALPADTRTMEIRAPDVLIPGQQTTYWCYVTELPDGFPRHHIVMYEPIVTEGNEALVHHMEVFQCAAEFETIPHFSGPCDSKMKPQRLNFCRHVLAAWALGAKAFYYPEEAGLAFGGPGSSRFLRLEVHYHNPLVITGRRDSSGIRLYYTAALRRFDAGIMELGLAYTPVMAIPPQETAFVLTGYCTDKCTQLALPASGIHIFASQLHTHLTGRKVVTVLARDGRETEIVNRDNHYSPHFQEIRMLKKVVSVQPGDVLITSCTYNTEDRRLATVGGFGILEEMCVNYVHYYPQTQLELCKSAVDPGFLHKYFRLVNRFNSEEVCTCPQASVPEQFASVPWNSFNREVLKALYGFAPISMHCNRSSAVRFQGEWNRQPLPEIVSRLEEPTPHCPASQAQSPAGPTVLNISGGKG

SMILES	toxicity (rats)	inhibiting action against DOPA decarboxylase (DOPA decarboxylase)	IC50 (DOPA decarboxylase)	blood pressure lowering action ([1]; 12.5 mg./kg., after 1 hour)	blood pressure lowering action ([1]; 12.5 mg./kg., after 3 hours)	blood pressure lowering action ([1]; 12.5 mg./kg., after 6 hours)	blood pressure lowering action ([1]; 12.5 mg./kg., after 24 hours)	blood pressure lowering action ([1]; 50 mg./kg., after 1 hour)	blood pressure lowering action ([1]; 50 mg./kg., after 3 hours)	blood pressure lowering action ([1]; 50 mg./kg., after 6 hours)	blood pressure lowering action ([1]; 50 mg./kg., after 24 hours)	blood pressure lowering action ([1]; 50 mg./kg., after 48 hours)	blood pressure lowering [1]	inhibiting action against tyrosine hydroxylase (tyrosine hydroxylase)	inhibiting action against the growth of fungi (fungi)	inhibiting action against dopamin-β-hydroxylase (dopamin-β-hydroxylase)	further results
COc1ccc(-c2coc3c(OC)c(O)cc(O)c3c2=O)cc1O [Compound (II), 3',5,7-trihydroxy-4',8-dimethoxy-isoflavone]	no toxicity	powerful inhibiting action	15.1 µM	10.4%	34.4%	32.8%	18.0%	22.3%	35.9%	35.3%	23.9%	16.3%	lowered the blood pressure	no inhibiting action	no inhibiting action	no inhibiting action	blood pressure lowering action ([1]; 3.1 mg./kg., after 1 hour): 21.0%; blood pressure lowering action ([1]; 3.1 mg./kg., after 3 hours): 26.3%; blood pressure lowering action ([1]; 3.1 mg./kg., after 6 hours): 28.0%; blood pressure lowering action ([1]; 3.1 mg./kg., after 24 hours): 22.0%; blood pressure lowering action ([1]; 3.1 mg./kg., after 48 hours): 13.4%; blood pressure lowering action ([1]; 12.5 mg./kg., after 48 hours): 18.0%
COc1ccc(-c2coc3cc(O)c(OC)c(O)c3c2=O)cc1O [Compound (I), 3',5,7-trihydroxy-4',6-dimethoxy-isoflavone]	no toxicity	powerful inhibiting action	37.8 µM	13.6%	10.7%	15.8%	7.8%	20.8%	16.4%	35.0%	3.8%	–	lowered the blood pressure	no inhibiting action	no inhibiting action	no inhibiting action	–
COc1ccc(-c2coc3c(OC)c(O)c(OC)cc3c2=O)cc1O [Compound (III), 3',7-dihydroxy-4',6,8-trimethoxy-isoflavone]	no toxicity	no inhibiting action	–	–	–	–	–	11.9%	13.0%	17.3%	7.0%	3.0%	lowered the blood pressure	no inhibiting action	no inhibiting action	no inhibiting action	inhibition of DOPA decarboxylase (DOPA decarboxylase; at a concentration as high as 100 .nu./cc): no inhibition
